Assay results reported in US20240254162A1, “CYCLOTHEONELLAZOLEA, AND SYNTHETIC METHOD THEREFOR, AND APPLICATION METHOD THEREOF” (The Second People's Hospital of Shenzhen(Shenzhen Institute …, priority 2022, published 2024).
Numbered stars: 1 amine (or outer) side, 2 acyl side, 3 side chain; on linkers, the order of the positions; unused ones are H or OH. Bridge positions count the residues as written; N and C are the ends. Square brackets hold non-standard residues; d marks the D form. Peptide text beside a SMILES is read from it. * marks the point of attachment. X2 = O=C(/C=C/c1csc([C@H](Cc2ccc(O)cc2)N[*:1])n1)[*:2]; X1 = CC[C@H](C)[C@H](N[*:1])C(=O)C(=O)[*:2]; Benzoyl(4-OH) = O=C(c1ccc(O)cc1)*; Cya = N[C@@H](CS(=O)(=O)O)C(=O)O; Nva = CCC[C@H](N)C(=O)O; Dap = NC[C@H](N)C(=O)O

What was measured:
Format in all cases: biochemical
[1] = target: T1, transmembrane serine protease 2 (TMPRSS2) (Homo sapiens, UniProt O15393); test: Inhibition effect of CA on TMPRSS2 enzyme activity (BPS Bioscience TMPRSS2 detection kit 78083, fluorescence); settings: incubated at room temperature for 30 min; Ex/Em=383/455 nm; FIG. 1
T1 construct: purchased BPS Bioscience 78083
Method: • 1. Experimental materials include a TMPRSS2 detection kit (78083) of a BPS Bioscience company and CA. • 2. Experimental methods are as follows. In a black 96-well plate, a blank well group, a negative control well group and a sample well group are set, and a detection system is 50 microliters (μL). The blank well group is added with 40 μL of buffer, the negative control well group is added with 30 μL of TMPRSS2 protease and 10 μL of buffer, the sample well group is added with 30 μL of TMPRSS2 protease and 10 μL of CA solution (respectively with concentrations of 0.1 micromole per liter abbreviated as μM, 1 μM, 10 μM, 30 μM, 100 μM, 150 μM, and 200 μM), and the three groups are incubated at the room temperature for 30 min. Each well is added with 10 μL of substrate, after mixing evenly, fluorescence value of each well is immediately detected at excitation/emission (Ex/Em)=383/455 nanometers (nm), every 30 seconds, and a dynamic process within a range of 0-40 min is observed. Two different time points (T1 and T2) are selected within a linear range of the dynamic process to obtain fluorescence values (RFUT1 and RFUT2) corresponding to the time points, a slope of the fluorescence values is calculated, and the slope can be regarded as an enzyme activity of each well. […] A half inhibitory concentration (IC50) is calculated through an Origin 2021 software. • 3.

[2] = target: T2, neutrophil elastase (NE) (Homo sapiens, UniProt P08246); test: Inhibition effect of CA on NE protease enzyme activity (Abcam NE protease detection kit ab118971, fluorescence); settings: incubated at 37° C. for 5 min; Ex/Em=400/505 nm; FIG. 3
T2 construct: purchased Abcam ab118971
T2 sequence (P08246 30-267): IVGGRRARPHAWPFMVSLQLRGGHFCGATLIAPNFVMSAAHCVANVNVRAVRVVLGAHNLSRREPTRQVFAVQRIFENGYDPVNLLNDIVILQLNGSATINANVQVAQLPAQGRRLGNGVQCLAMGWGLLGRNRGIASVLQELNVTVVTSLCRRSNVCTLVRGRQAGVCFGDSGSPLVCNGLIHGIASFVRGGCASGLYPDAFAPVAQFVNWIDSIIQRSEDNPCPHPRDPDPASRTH
Method: • 1. Experimental materials include a NE protease detection kit (ab118971) of an Abcam company and CA. • 2. Experimental methods are as follows. In a black 96-well plate, a blank well group, a negative control well group and a sample well group are set, and a detection system is 100 μL. The blank well group is added with 75 μL of buffer, the negative control well group is added with 50 μL of NE protease and 25 μL of buffer, the sample well group is added with 50 μL of NE protease and 25 μL of CA solution (respectively with concentrations of 0.00001 μM, 0.0001 μM, 0.001 μM, 0.003 μM, 0.01 μM and 0.1 μM), and the three groups are incubated at a temperature of 37° C. for 5 min. Each well is added with 25 μL of substrate, after mixing evenly, fluorescence value of each well is immediately detected at Ex/Em=400/505 nm, every 20 seconds, and a dynamic process within a range of 0-40 min is observed. Two different time points (T1 and T2) are selected within a linear range of the dynamic process to obtain fluorescence values (RFUT1 and RFUT2) corresponding to the time points, a slope of the fluorescence values is calculated, and the slope can be regarded as an enzyme activity of each well. A formula of the slope is slope=(RFUT2−RFUT1)/(T2−T1). […] A half inhibitory concentration (IC50) is calculated through the Origin 2021 software. • 3.

[3] = target: T3, mainprotease (Mpro) of SARS-COV-2 virus (Severe acute respiratory syndrome coronavirus 2, UniProt P0DTD1); test: Inhibition effect of CA on Mpro enzyme activity (BPS Bioscience Mpro detection kit 78042-2, fluorescence); settings: incubated at room temperature for 30 min; Ex/Em=360/460 nm; FIG. 2
T3 construct: Mainprotease (Mpro) of SARS-COV-2 Virus; purchased BPS Bioscience 78042-2

T1 sequence (O15393 whole entry): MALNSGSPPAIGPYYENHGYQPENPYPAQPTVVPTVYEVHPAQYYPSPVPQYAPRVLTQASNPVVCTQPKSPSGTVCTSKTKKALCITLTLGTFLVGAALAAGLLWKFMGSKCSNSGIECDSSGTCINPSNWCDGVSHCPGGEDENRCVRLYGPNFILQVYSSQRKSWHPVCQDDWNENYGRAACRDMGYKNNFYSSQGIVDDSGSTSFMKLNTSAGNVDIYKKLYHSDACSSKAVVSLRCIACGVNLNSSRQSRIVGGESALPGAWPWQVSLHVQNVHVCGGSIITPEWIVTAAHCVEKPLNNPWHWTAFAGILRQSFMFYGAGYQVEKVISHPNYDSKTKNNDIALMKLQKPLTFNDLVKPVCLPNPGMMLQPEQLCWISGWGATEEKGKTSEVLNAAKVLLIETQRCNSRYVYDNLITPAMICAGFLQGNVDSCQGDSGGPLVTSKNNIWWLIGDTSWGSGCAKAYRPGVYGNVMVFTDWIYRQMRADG

SMILES: CCC[C@@H]1NC(=O)[C@@H](NC(=O)[C@H](C)NC(=O)CNC(=O)c2ccc(O)cc2)CNC(=O)[C@H](CS(=O)(=O)O)NC(=O)/C=C/c2csc(n2)[C@H](Cc2ccc(O)cc2)NC(=O)C(=O)[C@H]([C@@H](C)CC)NC1=O [CA, CyclotheonellazoleA] ({Benzoyl(4-OH)}-GA[Dap][Nva][X1][X2][Cya]; lactam 3-C)
- IC50 [1]: 19.2 µM
- IC50 [2]: 0.001 µM
- IC50 [3]: 159 µM
